According to US9522908B2, “Ezrin inhibitors and methods of making and using” (Georgetown University, priority 2010, dated 2016):

How the values were obtained:
[1] = tested on: high ezrin expressed K7M2 cells; experiment: Electric cell migration system, K7M2 cells; type: cell-based; conditions: non-toxic concentration; compared to NSC 668394
Protocol: (§1) Anti-migration potential of the embodied compounds were validated using an electric cell migration system. High ezrin expressed K7M2 cells and low ezrin expressed K12 cells were treated with non-toxic concentrations of a compound and their corresponding anti-migration activity was measured. Data is represented as the ratio of compound K7M2 anti-migration activity divided by the K12 anti-migration activity. The X-axis details the non-toxic concentration of the compound used in the study.

[2] = tested on: low ezrin expressed K12 cells; experiment: Electric cell migration system, K12 cells; type: cell-based; conditions: non-toxic concentration
Protocol: as §1

zebrafish embryos = experiment: Zebrafish embryo development assay; type: in vivo, Zebrafish (Danio rerio)
Protocol: Animals. Zebrafish (Danio rerio) were raised, maintained and crossed as described before (Westerfield, M. University of Oregon Press, Eugene. Or., 1993). Development of embryos was studied at 28° C. and staging was determined by morphological characteristics (Kimmel, C. B., et al., Dev. Dyn. 203, 253-310 (1995)).
A translation blocking anti-ezrin morpholino oligonucleotide (MO), described and validated by Link et al. (Link, V., et al., J. Cell Sci., 119, 2073-2083 (2006)), MO1, 5′-[…] (SEQ ID NO:1), was synthesized by Gene-Tools, LCC (Philomath, Oreg.). MOs were microinjected into one to four cell stage embryos.
Zebrafish embryos were arrayed, three per well, in 96-well plates. Compounds were added at 1-33 μM concentrations. Embryos were observed, and photographed, at 70% epiboly, 24-28 hours post fertilization (hpf) and 48 hpf.

Row | Molecule | anti-migratory activity on K7M2 cells [1] | effect on K12 cell line migration [2] | embryos with epiboly defects at 90% epiboly stage (zebrafish embryos; 3 ng injected) [%] | embryos with epiboly defects at 90% epiboly stage (zebrafish embryos; 6 ng injected) [%] | embryos with epiboly defects at 90% epiboly stage (zebrafish embryos; 12 ng injected) [%]
1 | COc1ccc(CCNC2=CC(=O)c3cccnc3C2=O)cc1Cl [GK2-057] | greater anti-migratory activity | benign | – | – | –
2 | 5′-CGCGAACATTTACTGGTTTAGG (SEQ ID NO:1) (all phosphorodiamidate morpholino (PMO)) [MO1] | – | – | 42 | 69 | 69
